Data set [1] has as its system SARS-CoV-2-GHB-03021/2020. Nature of the data set: microbe, parasite or virus in culture. Type of data set: cell-based. The conditions noted are these: Severe acute respiratory syndrome coronavirus 2, Vero C1008, 96 h; read-out: VeroE6 + CP (EC50).
Data set [2] can be described thus: in vitro. The conditions noted are these: African green monkey, VeroE6 + CP (CC50), Vero E6-eGFP cells with CP-100356, absence of virus, MTS.
The target of a further data set is HRV3C (Human rhinovirus 14, UniProt P03303). The experiment in a line: HRV3C protease assay (duplex, SAMDI-MS). The data set is classed as biochemical, HRV. The conditions noted are these: 30 mins preincubation. An outline of the steps: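 Duplex format with 3CLpro; 30 min enzyme–compound preincubation, 30 min reaction with two peptide substrates, ambient temp. Stop: 0.5% formic acid, neutralized with 1% NaHCO3 (finals). Readout SAMDI-MS, product AUC over internal standard AUC; four-parameter IC50.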

The nature of data set [3]: Cytotoxicity plates without OC43 virus (cell-titer-glo). The settings on record: human; HeLa cells without OC43 virus, class symbols. The data set is classed as cell-based, human. An outline of the steps: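 HeLa cells seeded overnight, then treated with serially diluted compounds in 2% FBS EMEM, uninfected, in parallel with the OC43 antiviral plates. Incubated 6 days at 33 °C; viability read by CellTiter-Glo luminescence.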

In data set [4] the test system is SARS-CoV-2-GHB-03021/2020. Nature of the data set: SARS-CoV-2 Infection Model in Huh7 Cells. The data set is classed as cell-based. The settings on record: Severe acute respiratory syndrome coronavirus 2, Huh-7, 96 h, SARS-CoV-2, day 4 p.i., MTS, class symbols.
Data set [5] concerns human beta-coronavirus OC43. Nature of the data set: microbe, parasite or virus in culture. The settings on record: Betacoronavirus 1, OC43, HeLa, 144 h, OC43 in HeLa cells, 6 days at 33° C., class symbols; read-out: EC50. Type of data set: cell-based.
For the next data set, the target named is T1, human cathepsin L (Homo sapiens, UniProt P07711).
T1 construct: purchased R&D Systems
The experiment in a line: cathepsin L assay. Type of data set: biochemical. The conditions noted are these: 10 pM human cathepsin L, Z-FR-AMC 2 μM, class symbols. An outline of the steps: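 Human cathepsin L at 10 pM was preincubated 30 min with compound, then reaction started with Z-FR-AMC (2 μM final). Fluorescence (355/460 nm) read every 2 min for 30 min; IC50 from four-parameter curve fit.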

Data set [6] is described as follows: in vitro. The settings on record: human.
Another data set addresses 3CLpro (Severe acute respiratory syndrome coronavirus 2, UniProt P0DTD1). Nature of the data set: SARS-CoV-2 3CLpro protease assay (duplex, SAMDI-MS). Type of data set: biochemical. More on the design: For the duplex assay, 3CLpro and HRV3C was added. The settings on record: 3CLpro, 30 mins preincubation, class symbols; read-out: SARS-Cov-2 IC50.
Setting [7] is: HRV3C, bound, read-out: HRV IC50.
Setting [8] is: HRV3C, class symbols, read-out: HRV IC50.

Where two headings read alike, the source gives them in different places.

The term EC50 denotes the concentration needed to bring the measured effect to its halfway point. As a reminder, the IC50 is the concentration at which inhibition is half-maximal. On to `CNc1cccc2[nH]c(C(=O)N3C[C@@H]4CCC[C@@H]4[C@H]3C(=O)N[C@@H](C[C@@H]3CCNC3=O)C(=O)CO)cc12` [Compound 153, (1S,3aR,6aS)—N-[(2S)-4-hydroxy-3-oxo-1-[(3S)-2-oxopyrrolidin-3-yl]butan-2-yl]-2-[4-(methylamino)-1H-indole-2-carbonyl]-hexahydro-1H-cyclopenta[c]pyrrole-1-carboxamide], for which the EC50 in data set [1] lay in the range of 10 to 100 µM; in [4], 10 to 100 µM; in [5] it was 1 to 10 µM. In addition, the CC50 in “in vitro [2]” (numeric bounds) is above 50 µM; in the data set “in vitro [6]”, above 10 µM. For the same molecule, the IC50 on HRV3C (setting [7]) is above 10 µM; at human cathepsin L it was at least 10 µM; at 3CLpro, 0.02 to 0.2 µM. In addition, the CC50 at 6 days in data set [3] is above 10 µM.
Regarding `O=C(NC1CC1)C(=O)[C@H](C[C@@H]1CCNC1=O)NC(=O)[C@@H]1CC2(CCN1C(=O)c1cc3cc(F)ccc3[nH]1)CC2` [Compound 147], the figures for the concentration giving a half-maximal response (EC50) in data set [1], in data set [4] and in data set [5] were 10 to 100 µM, 10 to 100 µM and 0.1 to 1 µM, respectively. The CC50 in “in vitro [2]” (numeric bounds) and in the data set “in vitro [6]” was above 50 µM throughout. In addition, the figures for the IC50 on HRV3C (setting [8]), on human cathepsin L and on 3CLpro were 2 to 20 µM, at least 10 µM and below 0.02 µM, respectively. In addition, the CC50 at 6 days in data set [3] was above 10 µM.
Take `O=C1NCC[C@H]1C[C@H](NC(=O)[C@@H]1[C@H]2CCC[C@H]2CN1C(=O)c1cc2c(Cl)cc(OCc3ccccc3)cc2[nH]1)C(=O)CO` [Compound 130, (1S,3aR,6aS)-2-(6-(benzyloxy)-4-chloro-1H-indole-2-carbonyl)-N—((S)-4-hydroxy-3-oxo-1-((S)-2-oxopyrrolidin-3-yl)butan-2-yl)octahydrocyclopenta[c]pyrrole-1-carboxamide]: the figures for the 50% effective concentration (EC50) in data set [1], in data set [4] and in [5] were below 1 µM, below 1 µM and below 0.1 µM, respectively. Also, the CC50 in “in vitro [2]” (class symbols) and in “in vitro [6]” was above 10 µM in each case. The IC50 on HRV3C (setting [7]) was above 10 µM; against human cathepsin L, at least 10 µM; at 3CLpro, 0.02 to 0.2 µM. Further, the CC50 at 6 days in data set [3] is above 10 µM.
Consider `O=C1NCC[C@H]1C[C@H](NC(=O)[C@@H]1[C@H]2CCC[C@H]2CN1C(=O)c1cc2c(Cl)cc(Cl)cc2[nH]1)C(=O)CO` [Compound 91, (1S,3aR,6aS)-2-(4,6-dichloro-1H-indole-2-carbonyl)-N-[(2S)-4-hydroxy-3-oxo-1-[(3S)-2-oxopyrrolidin-3-yl]butan-2-yl]-hexahydro-1H-cyclopenta[c]pyrrole-1-carboxamide], for which the EC50 in data set [1] was below 1 µM; in data set [4], below 1 µM; in data set [5] it was below 0.1 µM. The CC50 in the data set “in vitro [2]” (class symbols) and in “in vitro [6]” was above 10 µM throughout. The half-maximal inhibitory concentration (IC50) at HRV3C (setting [8]) was 2 to 20 µM; against human cathepsin L, at least 10 µM; at 3CLpro, below 0.02 µM. Besides, the CC50 at 6 days in data set [3] is above 10 µM.
Turning to `O=C1NCCC[C@H]1C[C@H](NC(=O)[C@@H]1[C@H]2CCC[C@H]2CN1C(=O)c1cc2ccccc2[nH]1)C(O)S(=O)(=O)O` (stereo partly drawn) [Compound 58, sodium (2S)-2-{[(1S,3aR,6aS)-2-(1H-indole-2-carbonyl)-hexahydro-1H-cyclopenta[c]pyrrol-1-yl]formamido}-1-hydroxy-3-[(3S)-2-oxopiperidin-3-yl]propane-1-sulfonate], the EC50 in [1] was below 1 µM; in data set [4], below 1 µM; in [5] it was 0.1 to 1 µM. The CC50 in the data set “in vitro [2]” (numeric bounds) and in the data set “in vitro [6]” was above 100 µM in each case. Further, the IC50 against HRV3C (HRV IC50, HRV3C, class symbols) is 0.02 to 0.2 µM; at human cathepsin L, 1 to 10 µM; at 3CLpro, below 0.02 µM. Further, the CC50 at 6 days in [3] was above 10 µM.
For the molecule `O=C1NCC[C@H]1C[C@H](NC(=O)[C@@H]1[C@H]2CCC[C@H]2CN1C(=O)c1cc2c(OC(F)F)cc(Cl)cc2[nH]1)C(=O)CO` [Compound 126, (1S,3aR,6aS)-2-[6-chloro-4-(difluoromethoxy)-1H-indole-2-carbonyl]-N-[(2S)-4-hydroxy-3-oxo-1-[(3S)-2-oxopyrrolidin-3-yl]butan-2-yl]-hexahydro-1H-cyclopenta[c]pyrrole-1-carboxamide], the EC50 in data set [1] is 1 to 10 µM; in [4] it was 1 to 10 µM; in data set [5], below 0.1 µM. Besides, the CC50 in the data set “in vitro [2]” (numeric bounds) and in the data set “in vitro [6]” was above 50 µM in each case. Further, the IC50 at HRV3C (setting [8]) was 2 to 20 µM; at human cathepsin L it was at least 10 µM; at 3CLpro, below 0.02 µM. Moreover, the CC50 at 6 days in data set [3] is above 10 µM.
As for `COc1cccc2[nH]c(C(=O)N3CCc4ccccc4[C@H]3C(=O)N[C@@H](C[C@@H]3CCNC3=O)C(=O)C(=O)NC3CC3)cc12` [Compound 102], the values for the half-maximal effective concentration (EC50) in [1], in data set [4] and in data set [5] were 1 to 10 µM, 10 to 100 µM and 1 to 10 µM, respectively. Further, the CC50 in the data set “in vitro [2]” (numeric bounds) and in the data set “in vitro [6]” was above 100 µM throughout. Besides, the IC50 is above 10 µM at HRV3C (setting [7]), at least 10 µM against human cathepsin L and 0.2 to 2 µM at 3CLpro. Also, in data set [3], the CC50 at 6 days is above 10 µM.
As to `COc1cccc2[nH]c(C(=O)N3C[C@@H]4CCC[C@@H]4[C@H]3C(=O)NC(C[C@@H]3CCNC3=O)C(=O)C(=O)NC3CC3)cc12` (stereo partly drawn) [Compound 52, 3-{[(1S,3aR,6aS)-2-(4-methoxy-1H-indole-2-carbonyl)-hexahydro-1H-cyclopenta[c]pyrrol-1-yl]formamido}-N-cyclopropyl-2-oxo-4-[(3S)-2-oxopyrrolidin-3-yl]butanamide], the figures for the half-maximal effective concentration (EC50) in data set [1], in data set [4] and in data set [5] were 1 to 10 µM, 10 to 100 µM and 1 to 10 µM, respectively. Also, the CC50 in “in vitro [2]” (numeric bounds) and in “in vitro [6]” was above 100 µM each time. The values for the IC50 at HRV3C (setting [8]), at human cathepsin L and on 3CLpro were 0.2 to 2 µM, at least 10 µM and below 0.02 µM, respectively. Besides, the CC50 at 6 days in data set [3] was above 10 µM.
On to `O=C1NCC[C@H]1C[C@H](NC(=O)[C@@H]1[C@H]2CCC[C@H]2CN1C(=O)c1cc2c(Cl)ccc(C(F)(F)F)c2[nH]1)C(=O)CO` [Compound 117, (1S,3aR,6aS)-2-[4-chloro-7-(trifluoromethyl)-1H-indole-2-carbonyl]-N-[(2S)-4-hydroxy-3-oxo-1-[(3S)-2-oxopyrrolidin-3-yl]butan-2-yl]-hexahydro-1H-cyclopenta[c]pyrrole-1-carboxamide], for which the EC50 in data set [1] was below 1 µM; in data set [4], below 1 µM; in data set [5] it was 0.1 to 1 µM. For the same molecule, the CC50 in “in vitro [2]” (numeric bounds) and in “in vitro [6]” was above 50 µM throughout. In addition, the IC50 is above 10 µM on HRV3C (setting [7]), at least 10 µM against human cathepsin L and 0.02 to 0.2 µM at 3CLpro. For the same molecule, the CC50 at 6 days in data set [3] was above 10 µM.
Take `O=C1NCC[C@H]1C[C@H](NC(=O)[C@@H]1[C@H]2CCC[C@H]2CN1C(=O)c1cc2c(Cl)cccc2[nH]1)C(=O)COCc1ccccc1` [Compound 60A, (1S,3aR,6aS)—N-[(2S)-4-(benzyloxy)-3-oxo-1-[(3S)-2-oxopyrrolidin-3-yl]butan-2-yl]-2-(4-chloro-1H-indole-2-carbonyl)-hexahydro-1H-cyclopenta[c]pyrrole-1-carboxamide]: the values for the EC50 in data set [1], in [4] and in data set [5] were 1 to 10 µM, 1 to 10 µM and below 0.1 µM, respectively. Also, the CC50 is above 100 µM in “in vitro [2]” (numeric bounds) and 1 to 10 µM in “in vitro [6]”. The half-inhibitory concentration (IC50) is above 10 µM at HRV3C (setting [7]), at least 10 µM against human cathepsin L and 0.2 to 2 µM on 3CLpro. In data set [3], this molecule yielded a CC50 at 6 days above 10 µM.

Source of the values: patent US11952365B2, “Anti-viral compounds” (Aligos Therapeutics, Inc., priority 2020, dated 2024).
